Measured values from patent publication US11970494B2, “6-heteroaryloxy benzimidazoles and azabenzimidazoles as JAK2 inhibitors” (Ajax Therapeutics, Inc., priority 2021, dated 2024).

Legend:
Tyk2 = target: T1, Tyk2 (Homo sapiens, UniProt P29597); test: JAK Family Selectivity Assay: Tyk2 vs JAK2 binding affinity; details: Kd TYK2 over Kd JAK2
T1 construct: made in house; host or cells: T7 phage in BL21-derived E. coli or HEK-293 cells
Method: (§1) Provided compounds are evaluated for selectivity by comparing their JAK2 binding affinity (Kd) in the above JAK2 Binding Assay with their binding affinity (Kd) for one or more other kinases. Binding affinity for other kinases is determined as follows: Kinase-tagged T7 phage strains are prepared in an E. coli host derived from the BL21 strain. E. coli are grown to log-phase and infected with T7 phage and incubated with shaking at 32° C. until lysis. The lysates are centrifuged and filtered to remove cell debris. The remaining kinases are produced in HEK-293 cells and subsequently tagged with DNA for qPCR detection. Streptavidin-coated magnetic beads are treated with biotinylated small molecule ligands for 30 minutes at room temperature to generate affinity resins for kinase assays. The liganded beads are blocked with excess biotin and washed with blocking buffer (SeaBlock (Pierce), 1% BSA, 0.05% Tween 20, 1 mM DTT) to remove unbound ligand and to reduce non-specific binding. Binding reactions are assembled by combining kinases, liganded affinity beads, and test compounds in 1× binding buffer (20% SeaBlock, 0.17×PBS, 0.05% Tween 20, 6 mM DTT). Test compounds are prepared as 111× stocks in 100% DMSO. Kds are determined using an 11-point 3-fold compound dilution series with three DMSO control points. All compounds for Kd measurements are distributed by acoustic transfer (non-contact dispensing) in 100% DMSO. The compounds are then diluted directly into the assays such that the final concentration of DMSO is 0.9%. All reactions are performed in polypropylene 384-well plate. Each has a final volume of 0.02 ml. The assay plates are incubated at room temperature with shaking for 1 hour and the affinity beads are washed with wash buffer (1×PBS, 0.05% Tween 20). The beads are then re-suspended in elution buffer (1× PBS, 0.05% Tween 20, 0.5 μM non-biotinylated affinity ligand) and incubated at room temperature with shaking for 30 minutes. The kinase concentration in the eluates is measured by qPCR. […] In some embodiments, provided compounds may be JAK2-selective over one or more of the following kinases: JAK1, JAK3, and Tyk2.

[1] = Hepatocyte Stability Assay, human hepatocytes; format: in vitro ADME; details: cryopreserved hepatocytes, read-out: Human Heps CLint
Method: 10 mM stock solutions of test compound and positive control are prepared in DMSO. Stock solutions are diluted to 100 μM by combining 198 μL of 50% acetonitrile/50% water and 2 μL of 10 mM stock solution. Verapamil is used as positive control in the assay. Vials of cryopreserved hepatocytes are thawed in a 37° C. water bath with gently shaking. The contents are poured into the 50 mL thawing medium conical tube. Vials are centrifuged at 100 g for 10 minutes at room temperature. Thawing medium is aspirated and hepatocytes are re-suspended with serum-free incubation medium to yield ˜1.5×10^6 cells/mL. Cell viability and density are counted using a Trypan Blue exclusion, and then cells are diluted with serum-free incubation medium to a working cell density of 0.5×10^6 viable cells/mL. A portion of the hepatocytes at 0.5×10^6 viable cells/mL are boiled for 5 min prior to adding to the plate as negative control to eliminate the enzymatic activity so that little or no substrate turnover should be observed. Aliquots of 198 μL hepatocytes are dispensed into each well of a 96-well non-coated plate. The plate is placed in the incubator for approximately 10 minutes. Aliquots of 2 μL of the 100 μM test compound and 2 μL positive control are added into respective wells of a non-coated 96-well plate to start the reaction. The final concentration of test compound is 1 μM. This assay is performed in duplicate. The plate is incubated in the incubator for the designed time points. 25 μL of contents are transferred and mixed with 6 volumes (150 μL) of cold acetonitrile with internal standard (100 nM alprazolam, 200 nM labetalol, 200 nM caffeine and 200 nM diclofenac) to terminate the reaction at time points of 0, 15, 30, 60, 90 and 120 minutes. Samples are centrifuged for 25 minutes at 3,220 g and aliquots of 150 μL of the supernatants are used for LC-MS/MS analysis.

JAK1 = target: T2, JAK1 (Homo sapiens, UniProt P23458); test: JAK Family Selectivity Assay: JAK1 vs JAK2 binding affinity; details: Kd JAK1 over Kd JAK2
T2 construct: made in house; host or cells: T7 phage in BL21-derived E. coli or HEK-293 cells
Method: as §1

T2 sequence (P23458 whole entry): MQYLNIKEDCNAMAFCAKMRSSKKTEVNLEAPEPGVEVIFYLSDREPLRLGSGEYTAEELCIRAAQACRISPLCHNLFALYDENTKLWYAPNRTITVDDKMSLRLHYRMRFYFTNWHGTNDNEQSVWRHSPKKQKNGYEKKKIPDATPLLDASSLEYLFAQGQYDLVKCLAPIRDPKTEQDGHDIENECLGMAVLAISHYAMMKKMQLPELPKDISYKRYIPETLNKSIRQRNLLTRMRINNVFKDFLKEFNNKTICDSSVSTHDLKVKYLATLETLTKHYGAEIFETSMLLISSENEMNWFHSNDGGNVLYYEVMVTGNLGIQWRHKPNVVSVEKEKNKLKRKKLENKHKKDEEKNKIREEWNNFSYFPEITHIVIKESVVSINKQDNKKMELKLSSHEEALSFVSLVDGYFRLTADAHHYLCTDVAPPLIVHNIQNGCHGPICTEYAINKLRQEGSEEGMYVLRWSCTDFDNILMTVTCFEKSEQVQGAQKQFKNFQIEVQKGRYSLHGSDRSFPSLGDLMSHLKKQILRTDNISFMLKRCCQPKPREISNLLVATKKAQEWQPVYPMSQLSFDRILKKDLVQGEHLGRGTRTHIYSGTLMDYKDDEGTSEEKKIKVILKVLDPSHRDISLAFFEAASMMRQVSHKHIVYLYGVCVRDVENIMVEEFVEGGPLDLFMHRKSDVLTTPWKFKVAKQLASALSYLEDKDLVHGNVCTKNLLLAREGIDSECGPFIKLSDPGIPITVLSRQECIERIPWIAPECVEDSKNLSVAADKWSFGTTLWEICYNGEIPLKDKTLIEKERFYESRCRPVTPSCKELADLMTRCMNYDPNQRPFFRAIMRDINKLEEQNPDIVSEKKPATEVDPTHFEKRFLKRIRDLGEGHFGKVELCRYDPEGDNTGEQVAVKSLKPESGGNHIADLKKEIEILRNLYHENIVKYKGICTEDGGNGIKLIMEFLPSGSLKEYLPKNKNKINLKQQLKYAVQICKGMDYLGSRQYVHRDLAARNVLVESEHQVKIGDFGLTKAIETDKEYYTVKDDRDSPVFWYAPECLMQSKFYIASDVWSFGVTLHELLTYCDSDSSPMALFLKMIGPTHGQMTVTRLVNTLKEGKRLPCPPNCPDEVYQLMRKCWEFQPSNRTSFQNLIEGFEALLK
T1 sequence (P29597 whole entry): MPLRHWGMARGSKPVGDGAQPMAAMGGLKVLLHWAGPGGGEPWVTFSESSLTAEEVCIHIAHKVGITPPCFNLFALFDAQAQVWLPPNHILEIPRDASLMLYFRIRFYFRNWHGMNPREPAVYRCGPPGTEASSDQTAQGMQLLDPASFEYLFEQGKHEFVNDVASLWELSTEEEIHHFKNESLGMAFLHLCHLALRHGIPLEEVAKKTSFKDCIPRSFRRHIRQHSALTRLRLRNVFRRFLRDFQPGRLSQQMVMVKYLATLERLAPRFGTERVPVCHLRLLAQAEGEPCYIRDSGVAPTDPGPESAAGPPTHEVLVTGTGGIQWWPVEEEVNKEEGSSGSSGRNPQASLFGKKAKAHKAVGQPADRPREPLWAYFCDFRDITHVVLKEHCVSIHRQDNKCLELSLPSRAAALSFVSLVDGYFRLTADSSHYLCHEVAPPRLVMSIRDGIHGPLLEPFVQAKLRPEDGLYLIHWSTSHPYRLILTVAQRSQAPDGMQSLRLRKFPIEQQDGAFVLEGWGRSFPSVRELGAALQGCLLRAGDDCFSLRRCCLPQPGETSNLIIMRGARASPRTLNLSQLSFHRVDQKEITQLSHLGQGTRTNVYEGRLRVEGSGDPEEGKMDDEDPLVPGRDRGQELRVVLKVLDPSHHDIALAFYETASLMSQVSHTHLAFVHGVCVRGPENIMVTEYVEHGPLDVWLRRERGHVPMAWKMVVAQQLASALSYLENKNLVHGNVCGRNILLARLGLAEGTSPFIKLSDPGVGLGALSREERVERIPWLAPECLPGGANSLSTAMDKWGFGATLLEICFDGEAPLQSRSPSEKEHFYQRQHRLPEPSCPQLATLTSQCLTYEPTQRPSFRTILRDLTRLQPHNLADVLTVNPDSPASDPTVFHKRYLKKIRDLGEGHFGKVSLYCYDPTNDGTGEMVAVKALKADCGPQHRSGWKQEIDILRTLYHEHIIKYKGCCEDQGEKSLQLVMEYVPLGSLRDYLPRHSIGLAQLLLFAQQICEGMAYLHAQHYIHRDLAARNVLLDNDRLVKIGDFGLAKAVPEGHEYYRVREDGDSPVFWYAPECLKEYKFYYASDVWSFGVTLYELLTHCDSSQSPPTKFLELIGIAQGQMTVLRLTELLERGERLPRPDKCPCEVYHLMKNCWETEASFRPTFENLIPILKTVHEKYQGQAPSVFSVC

| Structure (SMILES) | TYK2/JAK2 Kd/Kd ratio (Tyk2) | CLint scaled at 1 μM [1] [mL/min/kg] | JAK1/JAK2 Kd/Kd ratio (JAK1) |
| --- | --- | --- | --- |
| COCC(=O)Nc1cc(Oc2cnc3nc(Nc4cc(C(F)(F)F)cn(C)c4=O)n(C)c3c2Cl)ccn1 [Example I-75, N-(4-((7-chloro-1-methyl-2-((1-methyl-2-oxo-5-(trifluoromethyl)-1,2-dihydropyridin-3-yl)amino)-1H-imidazo[4,5-b]pyridin-6-yl)oxy)pyridin-2-yl)-2-methoxyacetamide] | C (Kd/Kd ratio <300 and ≥100) | 12 to 20 | A (Kd/Kd ratio ≥1000) |
| COCC(=O)Nc1cc(Oc2cnc3nc(Nc4cc(C(F)(F)F)cn(C)c4=O)n(C)c3c2C#N)ccn1 [Example I-79, N-(4-((7-cyano-1-methyl-2-((1-methyl-2-oxo-5-(trifluoromethyl)-1,2-dihydropyridin-3-yl)amino)-1H-imidazo[4,5-b]pyridin-6-yl)oxy)pyridin-2-yl)-2-methoxyacetamide] | C (Kd/Kd ratio <300 and ≥100) | 12 to 20 | C (Kd/Kd ratio <300 and ≥100) |
| CC(=O)Nc1cc(Oc2cnc3nc(Nc4cc(C(F)(F)F)cn(C)c4=O)n(C)c3c2Cl)c(F)cn1 [Example I-88, N-(4-((7-chloro-1-methyl-2-((1-methyl-2-oxo-5-(trifluoromethyl)-1,2-dihydropyridin-3-yl)amino)-1H-imidazo[4,5-b]pyridin-6-yl)oxy)-5-fluoropyridin-2-yl)acetamide] | D (Kd/Kd ratio <100) | 12 to 20 | B (Kd/Kd ratio <1000 and ≥300) |
| Cn1c(Nc2cc3n(n2)CCC32CCC2)nc2ncc(Oc3ccnc(NC(=O)C4CC4)c3)c(C#N)c21 [Example I-122, N-(4-((7-cyano-2-((5′,6′-dihydrospiro[cyclobutane-1,4′-pyrrolo[1,2-b]pyrazol]-2′-yl)amino)-1-methyl-1H-imidazo[4,5-b]pyridin-6-yl)oxy)pyridin-2-yl)cyclopropanecarboxamide] | D (Kd/Kd ratio <100) | 12 to 20 | D (Kd/Kd ratio <100) |
| CCN1CCN(Cc2ccc(Nc3nc4ccc(Oc5ccnc(NC(C)=O)c5)cc4n3C)cc2C(F)(F)F)CC1 [Example R-1, reference compound] | C (Kd/Kd ratio <300 and ≥100) | 12 to 20 | C (Kd/Kd ratio <300 and ≥100) |
